Measurements from patent publication US6855730B2, “3-methylidenyl-2-indolinone modulators of protein kinase” (Sugen, Inc., priority 1998, dated 2005).
pIC50: −log10 of the molar value.

Tests used:
[1] = biological target: T1, PDGFR-β (Homo sapiens, UniProt P09619); experiment: Biochemical PDGFR assay (ELISA, PDGFR-β expressing NIH 3T3 cell lysate); details: read-out: bio PDGF IC50
T1 construct: host or cells: NIH 3T3
In short: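 Phosphorylation was read by ELISA (anti-phosphotyrosine serum, peroxidase secondary, ABTS at 410 nm) after a 30 min room-temperature reaction with 20 μM ATP, EDTA-stopped. Kinase was lysate-derived PDGFR-β (NIH 3T3) immobilised via 28D4C10 antibody, compound added 30 min before ATP.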

[2] = biological target: T2, flkGST (Homo sapiens, UniProt P35968); experiment: bio flkGST assay; assay type: biochemical
T2 construct: GST
T2 sequence (P35968 786-1356 limits assumed): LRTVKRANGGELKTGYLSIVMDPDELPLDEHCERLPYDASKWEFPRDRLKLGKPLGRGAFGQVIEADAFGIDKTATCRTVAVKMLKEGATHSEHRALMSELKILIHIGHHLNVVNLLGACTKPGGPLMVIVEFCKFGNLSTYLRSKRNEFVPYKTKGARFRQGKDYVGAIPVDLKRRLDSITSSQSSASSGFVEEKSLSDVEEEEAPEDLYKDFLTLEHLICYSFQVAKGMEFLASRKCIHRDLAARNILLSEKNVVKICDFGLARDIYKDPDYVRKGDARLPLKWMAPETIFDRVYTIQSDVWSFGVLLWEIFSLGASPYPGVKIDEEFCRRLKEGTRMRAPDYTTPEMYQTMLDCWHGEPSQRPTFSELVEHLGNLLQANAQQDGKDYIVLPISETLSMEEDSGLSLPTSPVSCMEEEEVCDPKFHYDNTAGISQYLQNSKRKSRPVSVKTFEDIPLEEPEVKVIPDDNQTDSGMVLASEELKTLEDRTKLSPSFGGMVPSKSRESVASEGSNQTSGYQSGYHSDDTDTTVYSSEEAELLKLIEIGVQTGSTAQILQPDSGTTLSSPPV

[3] = biological target: pyk2 (Homo sapiens, UniProt Q14289); experiment: bio pyk2 assay; assay type: biochemical
Sequence of pyk2 (Q14289 whole entry, species assumed): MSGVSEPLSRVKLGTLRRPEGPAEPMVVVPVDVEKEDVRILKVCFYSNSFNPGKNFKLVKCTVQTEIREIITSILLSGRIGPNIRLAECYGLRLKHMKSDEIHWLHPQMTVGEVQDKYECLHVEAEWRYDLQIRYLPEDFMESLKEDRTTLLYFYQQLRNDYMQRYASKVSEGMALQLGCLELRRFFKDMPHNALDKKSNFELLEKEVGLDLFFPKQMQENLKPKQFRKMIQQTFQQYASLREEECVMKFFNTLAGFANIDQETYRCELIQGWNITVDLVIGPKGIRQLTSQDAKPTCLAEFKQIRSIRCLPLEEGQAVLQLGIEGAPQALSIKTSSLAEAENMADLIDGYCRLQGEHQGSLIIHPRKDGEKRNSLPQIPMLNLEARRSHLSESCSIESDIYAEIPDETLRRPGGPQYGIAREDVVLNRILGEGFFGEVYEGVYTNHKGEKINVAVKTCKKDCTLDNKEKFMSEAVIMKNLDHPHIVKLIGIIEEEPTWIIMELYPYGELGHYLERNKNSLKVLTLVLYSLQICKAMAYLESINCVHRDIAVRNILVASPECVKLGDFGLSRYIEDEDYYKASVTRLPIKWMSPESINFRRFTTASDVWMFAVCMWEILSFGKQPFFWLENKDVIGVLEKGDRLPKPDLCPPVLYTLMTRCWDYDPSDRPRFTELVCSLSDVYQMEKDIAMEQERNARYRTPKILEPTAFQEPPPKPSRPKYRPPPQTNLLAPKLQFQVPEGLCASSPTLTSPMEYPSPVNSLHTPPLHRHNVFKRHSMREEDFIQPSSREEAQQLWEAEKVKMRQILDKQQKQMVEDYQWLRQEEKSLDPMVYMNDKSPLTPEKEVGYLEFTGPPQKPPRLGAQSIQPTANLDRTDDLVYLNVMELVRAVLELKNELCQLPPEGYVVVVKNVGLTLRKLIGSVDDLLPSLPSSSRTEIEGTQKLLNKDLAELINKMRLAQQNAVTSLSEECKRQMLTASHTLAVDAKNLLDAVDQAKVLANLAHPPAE

[4] = biological target: EGFR (Homo sapiens, UniProt P00533); experiment: Biochemical EGFR assay (ELISA, A431 cell lysate); design: A431 cell lysate (Screening Lab, SUGEN, Inc.); host or cells: A431; details: read-out: bio EGFr IC50
Sequence of EGFR (P00533 25-1210): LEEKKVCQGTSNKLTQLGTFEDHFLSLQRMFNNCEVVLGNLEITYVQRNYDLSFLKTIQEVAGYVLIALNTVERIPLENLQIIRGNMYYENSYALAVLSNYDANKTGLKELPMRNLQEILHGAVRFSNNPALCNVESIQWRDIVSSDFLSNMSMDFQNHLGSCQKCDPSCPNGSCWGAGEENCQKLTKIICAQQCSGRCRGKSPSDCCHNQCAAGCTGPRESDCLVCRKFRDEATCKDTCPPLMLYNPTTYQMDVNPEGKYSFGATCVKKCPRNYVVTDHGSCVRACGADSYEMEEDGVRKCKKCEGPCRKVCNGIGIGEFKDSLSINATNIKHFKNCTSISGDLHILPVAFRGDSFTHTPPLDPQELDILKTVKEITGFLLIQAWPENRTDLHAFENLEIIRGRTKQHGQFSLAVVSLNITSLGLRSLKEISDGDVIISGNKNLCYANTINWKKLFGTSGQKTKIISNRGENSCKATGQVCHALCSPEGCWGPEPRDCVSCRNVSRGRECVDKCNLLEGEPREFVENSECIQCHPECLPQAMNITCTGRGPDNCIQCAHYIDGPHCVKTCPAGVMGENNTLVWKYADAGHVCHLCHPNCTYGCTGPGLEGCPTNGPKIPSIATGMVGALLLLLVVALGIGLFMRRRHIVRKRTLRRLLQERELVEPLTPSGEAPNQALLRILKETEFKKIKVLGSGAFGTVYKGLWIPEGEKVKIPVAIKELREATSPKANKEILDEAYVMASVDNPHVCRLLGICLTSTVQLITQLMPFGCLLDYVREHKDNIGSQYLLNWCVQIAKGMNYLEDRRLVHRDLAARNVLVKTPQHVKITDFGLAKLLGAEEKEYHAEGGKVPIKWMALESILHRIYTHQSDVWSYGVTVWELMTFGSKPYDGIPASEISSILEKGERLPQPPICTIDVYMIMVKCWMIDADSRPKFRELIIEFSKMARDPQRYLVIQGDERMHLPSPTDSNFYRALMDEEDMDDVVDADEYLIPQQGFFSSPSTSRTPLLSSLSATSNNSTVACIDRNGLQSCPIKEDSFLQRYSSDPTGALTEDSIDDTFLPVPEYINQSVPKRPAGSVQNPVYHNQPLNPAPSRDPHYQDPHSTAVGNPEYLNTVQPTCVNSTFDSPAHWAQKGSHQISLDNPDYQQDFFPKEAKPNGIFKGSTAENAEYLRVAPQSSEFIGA
In short: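 EGFR captured from A431 cell lysate onto anti-EGFR-coated plates, then incubated with test compound for 30 min at room temperature. Tyrosine phosphorylation with ATP/MnCl2 was stopped with EDTA after 5 min and detected by anti-phosphotyrosine ELISA with peroxidase/ABTS read-out.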

[5] = biological target: Myc-GyrB-FGFR fusion protein (Homo sapiens, UniProt P11362); experiment: Biochemical FGFR assay (ELISA); details: read-out: bio fgfR1 IC50
Sequence of Myc-GyrB-FGFR fusion protein (P11362 478-767 limits assumed): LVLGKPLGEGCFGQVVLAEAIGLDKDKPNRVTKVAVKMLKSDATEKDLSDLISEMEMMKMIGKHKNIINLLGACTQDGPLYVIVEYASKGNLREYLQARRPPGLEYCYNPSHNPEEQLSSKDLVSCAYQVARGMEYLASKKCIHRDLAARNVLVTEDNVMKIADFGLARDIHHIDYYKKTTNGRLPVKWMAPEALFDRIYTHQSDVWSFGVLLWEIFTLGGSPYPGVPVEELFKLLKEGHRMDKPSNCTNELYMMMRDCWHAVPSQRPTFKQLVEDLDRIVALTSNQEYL

T1 sequence (P09619 33-1106): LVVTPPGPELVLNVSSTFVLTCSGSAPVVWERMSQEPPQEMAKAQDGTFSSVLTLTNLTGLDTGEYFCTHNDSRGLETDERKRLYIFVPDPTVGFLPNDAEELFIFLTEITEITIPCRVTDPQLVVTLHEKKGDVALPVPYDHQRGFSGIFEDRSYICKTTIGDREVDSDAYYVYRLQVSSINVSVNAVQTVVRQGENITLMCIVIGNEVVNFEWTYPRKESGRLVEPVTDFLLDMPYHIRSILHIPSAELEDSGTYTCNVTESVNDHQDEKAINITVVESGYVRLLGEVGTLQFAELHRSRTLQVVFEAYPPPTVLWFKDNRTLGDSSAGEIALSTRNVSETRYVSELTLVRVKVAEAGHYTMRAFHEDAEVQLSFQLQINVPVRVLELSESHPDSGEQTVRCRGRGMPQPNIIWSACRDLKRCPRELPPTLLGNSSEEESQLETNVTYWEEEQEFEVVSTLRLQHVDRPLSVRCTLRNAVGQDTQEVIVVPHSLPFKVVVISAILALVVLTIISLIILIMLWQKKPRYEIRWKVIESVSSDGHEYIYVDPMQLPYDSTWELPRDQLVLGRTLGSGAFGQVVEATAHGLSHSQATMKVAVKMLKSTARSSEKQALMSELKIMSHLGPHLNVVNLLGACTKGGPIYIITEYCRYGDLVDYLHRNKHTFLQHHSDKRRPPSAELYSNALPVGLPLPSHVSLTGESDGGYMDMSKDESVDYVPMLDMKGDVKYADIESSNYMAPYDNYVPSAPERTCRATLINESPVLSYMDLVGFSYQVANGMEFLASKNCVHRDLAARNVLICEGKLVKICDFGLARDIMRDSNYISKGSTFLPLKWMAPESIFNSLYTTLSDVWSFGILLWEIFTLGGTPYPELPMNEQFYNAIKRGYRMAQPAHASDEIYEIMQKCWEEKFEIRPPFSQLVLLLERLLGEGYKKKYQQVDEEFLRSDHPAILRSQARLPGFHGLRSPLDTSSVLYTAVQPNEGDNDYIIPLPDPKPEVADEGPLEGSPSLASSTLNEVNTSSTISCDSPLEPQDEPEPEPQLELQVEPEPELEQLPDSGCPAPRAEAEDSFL

`CNS(=O)(=O)c1ccc2c(c1)/C(=C/c1[nH]c(C)c(C(=O)O)c1CCCN(C)C)C(=O)N2` [Example 138, 4-(3-Dimethylaminopropyl)-2-methyl-5-(5-methylsulfamoyl-2-oxo-1,2-dihydroindol-3-ylidenemethyl)-1H-pyrrole-3-carboxylic acid] was tested, and the pIC50 [1] was 4.58, the pIC50 [2] was 4.75 and the pIC50 [3] was 5.66. The pIC50 [4] was < 4.00.

For `CNS(=O)(=O)c1ccc2c(c1)/C(=C/c1c(C)[nH]c3ccccc13)C(=O)N2` [Compound 181, 3-(2-Methyl-1H-indol-3-ylmethylene)-2-oxo-2,3-dihydro-1H-indole 5-sulfonic acid methylamide], the pIC50 [1] was < 4.00, the pIC50 [5] was 5.24 and the pIC50 [2] was 4.90. The pIC50 [3] was < 4.00.

`CNS(=O)(=O)c1ccc2c(c1)/C(=C/c1ccc3[nH]ccc3c1)C(=O)N2` [Example 176, 3-(1H-Indol-5-ylmethylene)-2-oxo-2,3-dihydro-1H-indole-5-sulfonic acid methylamide] was tested, and the pIC50 [1] was 4.10, the pIC50 [5] was 6.12 and the pIC50 [2] was 5.68. It also gave a pIC50 [3] of 4.18.

With `CNS(=O)(=O)c1ccc2c(c1)/C(=C/c1[nH]c3ccccc3c1CCCN(C)C)C(=O)N2` [Example 149, 3-[3-(3-Dimethylaminopropyl)-1H-indol-2-ylmethylene]-2-oxo-2,3-dihydro-1H-indole-5-sulfonic acid methylamide] the pIC50 [1] was 5.28, the pIC50 [5] was 6.11 and the pIC50 [2] was 5.58. For the same compound, the pIC50 [3] was 5.30.

In the case of `CN(C)S(=O)(=O)c1ccc2c(c1)/C(=C/c1c[nH]c3ccccc13)C(=O)N2` [Example 188, 3-(1H-Indol-3-ylmethylene)-2-oxo-2,3-dihydro-1H-indole-5-sulfonic acid dimethylamide], the pIC50 [1] was < 4.00, the pIC50 [5] was 4.76 and the pIC50 [2] was < 4.70. The pIC50 [3] was 4.18.

For `CNS(=O)(=O)c1ccc2c(c1)/C(=C/c1c[nH]c3ccccc13)C(=O)N2` [Example 178, 3-(1H-Indol-3-ylmethylene)-2-oxo-2,3-dihydro-1H-indole-5-sulfonic acid methylamide], the pIC50 [1] was < 4.00, the pIC50 [5] was 5.49 and the pIC50 [2] was < 4.70. The pIC50 [3] was 4.24.

Compound `CCOC(=O)c1c(C)[nH]c(/C=C2\C(=O)Nc3ccc(S(N)(=O)=O)cc32)c1CCCN1CCN(C)CC1` [Example 124, 2-Methyl-4-[3-(4-methylpiperazin-1-yl)-propyl]-5-(2-oxo-5-sulfamoyl-1,2-dihydroindol-3ylidenemethyl)-1H-pyrrole-3-carboxylic acid ethyl ester] has a pIC50 [1] of 4.47, a pIC50 [2] of 4.86 and a pIC50 [3] of 5.38.

For `CCOC(=O)c1c(C)[nH]c(/C=C2\C(=O)Nc3ccc(S(=O)(=O)NC)cc32)c1CCCN(C)C` [Example 137], the pIC50 [1] was 5.21, the pIC50 [2] was 5.12 and the pIC50 [3] was < 5.00. The pIC50 [4] was < 4.00.

With `NS(=O)(=O)c1ccc2c(c1)/C(=C/c1ccc3[nH]ccc3c1)C(=O)N2` [Example 185, 3-(1H-Indol-5-ylmethylene)-2-oxo-2,3-dihydro-1H-indole-5-sulfonic acid amide] the pIC50 [1] was < 4.00, the pIC50 [5] was 5.03 and the pIC50 [2] was 5.47. For the same compound, the pIC50 [3] was < 4.00.

For `Cc1[nH]c2ccccc2c1/C=C1\C(=O)Nc2ccc(S(N)(=O)=O)cc21` [Example 189, 3-(2-Methyl-1H-indol-3-ylmethylene)-2-oxo-2,3-dihydro-1H-indole-5-sulfonic acid amide], the pIC50 [1] was < 4.00, the pIC50 [5] was < 4.70 and the pIC50 [2] was < 4.70. The pIC50 [3] was < 4.00.

`CN(C)S(=O)(=O)c1ccc2c(c1)/C(=C/c1cc3ccccc3[nH]1)C(=O)N2` [Example 186, 3-(1H-Indol-2-ylmethylene)-2-oxo-2,3-dihydro-1H-indole-5-sulfonic acid dimethylamide] was tested, and the pIC50 [1] was < 4.00, the pIC50 [5] was 4.98 and the pIC50 [2] was 5.21. For the same compound, the pIC50 [3] was < 4.00.

With `CCOC(=O)c1c(C)[nH]c(/C=C2\C(=O)Nc3ccc(S(N)(=O)=O)cc32)c1CCCN1CCOCC1` [Example 123, 2-Methyl-4-(3-morpholin-4-ylpropyl)-5-(2-oxo-5-sulfamoyl-1,2-dihydroindol-3-ylidenemethyl)-1H-pyrrole-3-carboxylic acid ethyl ester] the pIC50 [1] was 4.82, the pIC50 [2] was 4.77 and the pIC50 [3] was 5.33.
